We go through one compound from paper PMC5218480 (PLoS ONE, 2017).

For this experiment, the system named is MV-4-11 cells. As to the kind of experiment: Gene expression microarray analysis (Affymetrix PrimeView) and GSEA. Format: cell-based, human. Also on record: RFU PODN (11730768_x_at) / Fold change /veh PODN (11730768_x_at) / RFU LINC00158 (11744669_a_at) / Fold change /veh LINC00158 (11744669_a_at) / RFU DUSP10 (11751237_a_at) / Fold change /veh DUSP10 (11751237_a_at) / RFU ID3 (11757404_x_at) / Fold change /veh ID3 (11757404_x_at) / RFU PLEKHG5 (11737974_s_at) / Fold change /veh PLEKHG5 (11737974_s_at) / RFU LRRC4B (11730491_at) / Fold change /veh LRRC4B (11730491_at) / RFU GIMAP4 (11747438_a_at) / Fold change /veh GIMAP4 (11747438_a_at) / RFU KRT8 (11758183_x_at) / Fold change /veh KRT8 (11758183_x_at) / RFU CNN1 (11734310_a_at) / Fold change /veh CNN1 (11734310_a_at) / RFU VPS37D (11726825_at) / Fold change /veh VPS37D (11726825_at) / RFU C10orf10 (11716522_x_at) / Fold change /veh C10orf10 (11716522_x_at) / RFU KIR2DL2 /// KIR2DL4 /// KIR2DL5A /// KIR2DL5B /// KIR2DS1 /// KIR2DS2 /// KIR2DS3 /// KIR2DS4 /// KIR3DL3 /// KIR3DL3 /// KIR3DS1 (11738374_at) / Fold change /veh KIR2DL2 /// KIR2DL4 /// KIR2DL5A /// KIR2DL5B /// KIR2DS1 /// KIR2DS2 /// KIR2DS3 /// KIR2DS4 /// KIR3DL3 /// KIR3DL3 /// KIR3DS1 (11738374_at) / RFU C1QL1 (11718748_at) / Fold change /veh C1QL1 (11718748_at) / RFU TMPRSS4 (11747572_a_at) / Fold change /veh TMPRSS4 (11747572_a_at) / RFU HAMP (11756126_x_at) / Fold change /veh HAMP (11756126_x_at) / RFU RNFT2 (11725882_a_at) / Fold change /veh RNFT2 (11725882_a_at) / RFU NR4A2 (11747474_a_at) / Fold change /veh NR4A2 (11747474_a_at) / RFU ABCC12 (11746883_a_at) / Fold change /veh ABCC12 (11746883_a_at) / RFU TMEM136 (11760407_x_at) / Fold change /veh TMEM136 (11760407_x_at) / RFU CLDN22 /// WWC2 (11732394_at) / Fold change /veh CLDN22 /// WWC2 (11732394_at) / RFU HLA-DPB1 (11760878_x_at) / Fold change /veh HLA-DPB1 (11760878_x_at) / RFU SPINT1 (11716480_a_at) / Fold change /veh SPINT1 (11716480_a_at) / RFU GAP43 (11754022_s_at) / Fold change /veh GAP43 (11754022_s_at) / RFU A4GNT (11735810_at) / Fold change /veh A4GNT (11735810_at) / RFU PRB3 (11715151_x_at) / Fold change /veh PRB3 (11715151_x_at) / RFU TUBB4B (11761932_at) / Fold change /veh TUBB4B (11761932_at) / RFU CAPN14 (11732068_a_at) / Fold change /veh CAPN14 (11732068_a_at) / RFU TMCC2 (11721928_a_at) / Fold change /veh TMCC2 (11721928_a_at) / RFU IRGQ (11745062_a_at) / Fold change /veh IRGQ (11745062_a_at) / RFU FAM174B (11720279_a_at) / Fold change /veh FAM174B (11720279_a_at) / RFU TMPRSS4 (11748680_a_at) / Fold change /veh TMPRSS4 (11748680_a_at) / RFU FAM212B (11763350_a_at) / Fold change /veh FAM212B (11763350_a_at) / RFU PLEKHG5 (11743358_a_at) / Fold change /veh PLEKHG5 (11743358_a_at) / RFU ZSCAN30 (11745921_a_at) / Fold change /veh ZSCAN30 (11745921_a_at) / RFU CMKLR1 (11741424_a_at) / Fold change /veh CMKLR1 (11741424_a_at) / RFU LOC101060620 /// MAPK8IP1 (11723275_at) / Fold change /veh LOC101060620 /// MAPK8IP1 (11723275_at) / RFU SPTSSB (11747773_x_at) / Fold change /veh SPTSSB (11747773_x_at) / RFU PRSS12 (11739890_at) / Fold change /veh PRSS12 (11739890_at) / RFU BIN1 (11741810_x_at) / Fold change /veh BIN1 (11741810_x_at) / RFU WNT11 (11732464_a_at) / Fold change /veh WNT11 (11732464_a_at) / RFU C10orf10 (11716521_a_at) / Fold change /veh C10orf10 (11716521_a_at) / RFU C5orf56 (11738089_at) / Fold change /veh C5orf56 (11738089_at) / RFU CYB561 (11721691_x_at) / Fold change /veh CYB561 (11721691_x_at) / RFU ANKRD19P (11752326_a_at) / Fold change /veh ANKRD19P (11752326_a_at) / RFU OR2T12 /// OR2T33 /// OR2T8 (11738714_s_at) / Fold change /veh OR2T12 /// OR2T33 /// OR2T8 (11738714_s_at) / RFU VCAN (11748164_a_at) / Fold change /veh VCAN (11748164_a_at) / RFU JSRP1 (11732532_at) / Fold change /veh JSRP1 (11732532_at) / RFU KRTAP10-11 (11738290_x_at) / Fold change /veh KRTAP10-11 (11738290_x_at) / RFU MYO3A (11730013_a_at) / Fold change /veh MYO3A (11730013_a_at) / RFU EBF3 (11725865_a_at) / Fold change /veh EBF3 (11725865_a_at) / RFU CAMK2N1 (11719241_x_at) / Fold change /veh CAMK2N1 (11719241_x_at) / RFU C5orf56 (11738088_a_at) / Fold change /veh C5orf56 (11738088_a_at) / RFU OLFML3 (11715873_a_at) / Fold change /veh OLFML3 (11715873_a_at) / RFU LOC100653217 /// NTM (11731650_a_at) / Fold change /veh LOC100653217 /// NTM (11731650_a_at) / RFU MAPK11 (11762145_a_at) / Fold change /veh MAPK11 (11762145_a_at) / RFU FIZ1 (11724087_x_at) / Fold change /veh FIZ1 (11724087_x_at) / RFU OASL (11726364_x_at) / Fold change /veh OASL (11726364_x_at) / RFU SOX15 (11748057_x_at) / Fold change /veh SOX15 (11748057_x_at) / RFU CD79A (11719716_a_at) / Fold change /veh CD79A (11719716_a_at) / RFU HIST1H1D (11736915_at) / Fold change /veh HIST1H1D (11736915_at) / RFU CASKIN2 (11723855_a_at) / Fold change /veh CASKIN2 (11723855_a_at) / RFU LOC730098 (11760151_x_at) / Fold change /veh LOC730098 (11760151_x_at) / RFU OR4N2 (11742367_at) / Fold change /veh OR4N2 (11742367_at) / RFU PRRT2 (11749266_a_at) / Fold change /veh PRRT2 (11749266_a_at) / RFU SNX32 (11753110_a_at) / Fold change /veh SNX32 (11753110_a_at) / RFU CDHR5 (11726645_a_at) / Fold change /veh CDHR5 (11726645_a_at) / RFU RCAN1 (11760418_a_at) / Fold change /veh RCAN1 (11760418_a_at) / RFU FAM167A (11723789_a_at) / Fold change /veh FAM167A (11723789_a_at) / RFU FAM26E (11764081_at) / Fold change /veh FAM26E (11764081_at) / RFU ISYNA1 (11749810_s_at) / Fold change /veh ISYNA1 (11749810_s_at) / RFU ACY1 (11761880_at) / Fold change /veh ACY1 (11761880_at) / RFU 11764098_at / Fold change /veh 11764098_at / RFU SAMD14 (11745864_x_at) / Fold change /veh SAMD14 (11745864_x_at) / RFU NPB (11741838_a_at) / Fold change /veh NPB (11741838_a_at) / RFU TMPRSS6 (11731388_a_at) / Fold change /veh TMPRSS6 (11731388_a_at) / RFU KRTAP10-2 (11738614_at) / Fold change /veh KRTAP10-2 (11738614_at) / RFU ARHGAP8 /// PRR5-ARHGAP8 (11727945_x_at) / Fold change /veh ARHGAP8 /// PRR5-ARHGAP8 (11727945_x_at) / RFU KRTAP5-7 /// NADSYN1 (11734609_at) / Fold change /veh KRTAP5-7 /// NADSYN1 (11734609_at) / RFU RASL12 (11751679_a_at) / Fold change /veh RASL12 (11751679_a_at) / RFU CDKN2B (11736163_a_at) / Fold change /veh CDKN2B (11736163_a_at) / RFU PRF1 (11729649_at) / Fold change /veh PRF1 (11729649_at) / RFU, ZNF638 /// ZNF638-IT1 / Fold change vs veh, ZNF638 /// ZNF638-IT1 / RFU, PANK3 / Fold change vs veh, PANK3 / RFU, SH3YL1 / Fold change vs veh, SH3YL1 / RFU, ZEB2 / Fold change vs veh, ZEB2 / RFU, NRIP1 / Fold change vs veh, NRIP1 / RFU, PTTG1IP / Fold change vs veh, PTTG1IP / RFU, CAPN2 / Fold change vs veh, CAPN2 / RFU, MED14 / Fold change vs veh, MED14 / RFU, SNORA58 / Fold change vs veh, SNORA58 / RFU, C1orf63 / Fold change vs veh, C1orf63 / RFU, LRRFIP1 / Fold change vs veh, LRRFIP1 / RFU, NDUFAF7 / Fold change vs veh, NDUFAF7 / RFU, SLC12A2 / Fold change vs veh, SLC12A2 / RFU, IBTK / Fold change vs veh, IBTK / RFU, ESF1 / Fold change vs veh, ESF1 / Fold change vs veh, TMEM50B / RFU, TAOK1 / Fold change vs veh, TAOK1 / RFU, ACBD3 / Fold change vs veh, ACBD3 / RFU, TMA16 / Fold change vs veh, TMA16 / RFU, RWDD3 / Fold change vs veh, RWDD3 / RFU, BCAT1 / Fold change vs veh, BCAT1 / RFU, EDEM3 / Fold change vs veh, EDEM3 / RFU, TMEM33 / Fold change vs veh, TMEM33 / RFU, WDR75 / Fold change vs veh, WDR75 / RFU, AHCTF1 / Fold change vs veh, AHCTF1 / RFU, TFRC / Fold change vs veh, TFRC / RFU, ZDHHC17 / Fold change vs veh, ZDHHC17 / RFU, NOM1 / Fold change vs veh, NOM1 / RFU, ARL8B / Fold change vs veh, ARL8B / RFU, ZBTB11 / Fold change vs veh, ZBTB11 / RFU, TAMM41 / Fold change vs veh, TAMM41 / RFU, KIAA1704 /// LOC100996395 / Fold change vs veh, KIAA1704 /// LOC100996395 / RFU, ING1 / Fold change vs veh, ING1 / RFU, TRMT61B / Fold change vs veh, TRMT61B / RFU, FUBP3 / Fold change vs veh, FUBP3 / RFU, TP53 / Fold change vs veh, TP53 / RFU, TNKS2 / Fold change vs veh, TNKS2 / RFU, ZFP14 / Fold change vs veh, ZFP14 / RFU, ACTR2 / Fold change vs veh, ACTR2 / RFU, PPP3R1 / Fold change vs veh, PPP3R1 / RFU, PIK3R1 / Fold change vs veh, PIK3R1 / RFU, HNRNPA1 / Fold change vs veh, HNRNPA1 / RFU, RNF170 / Fold change vs veh, RNF170 / RFU, ZNF28 / Fold change vs veh, ZNF28 / RFU, RNGTT / Fold change vs veh, RNGTT / RFU, OGT / Fold change vs veh, OGT / RFU, BRD1 / Fold change vs veh, BRD1 / RFU, MARS / Fold change vs veh, MARS / RFU, ZNF655 / Fold change vs veh, ZNF655 / RFU, FAHD1 / Fold change vs veh, FAHD1 / RFU, BDP1 / Fold change vs veh, BDP1 / RFU, LRRCC1 / Fold change vs veh, LRRCC1 / RFU, ARID1A / Fold change vs veh, ARID1A / RFU, ZNF146 / Fold change vs veh, ZNF146 / RFU, ZNF330 / Fold change vs veh, ZNF330 / RFU, GPN3 / Fold change vs veh, GPN3 / RFU, C9orf123 / Fold change vs veh, C9orf123 / RFU, N4BP2L2 / Fold change vs veh, N4BP2L2 / RFU, ARFIP1 / Fold change vs veh, ARFIP1 / RFU, FAM179B / Fold change vs veh, FAM179B / RFU, BCL10 / Fold change vs veh, BCL10 / RFU, UHRF1BP1L / Fold change vs veh, UHRF1BP1L / RFU, BET1 / Fold change vs veh, BET1 / RFU, CNOT2 / Fold change vs veh, CNOT2 / RFU, ZNF268 / Fold change vs veh, ZNF268 / Fold change vs veh, ZNF507 / RFU, DGCR2 / Fold change vs veh, DGCR2 / RFU, WDSUB1 / Fold change vs veh, WDSUB1 / Fold change vs veh, HSP90B1 /// MIR3652 / RFU, ADSS / Fold change vs veh, ADSS / RFU, GK / Fold change vs veh, GK / RFU, ZNF148 / Fold change vs veh, ZNF148 / RFU, TAF9 / Fold change vs veh, TAF9 / RFU, SLC1A5 / Fold change vs veh, SLC1A5 / RFU, SLMO2 / Fold change vs veh, SLMO2 / RFU, ABCC4 / Fold change vs veh, ABCC4 / RFU, LOC101060439 /// RAP1B / Fold change vs veh, LOC101060439 /// RAP1B / RFU, RFX7 / Fold change vs veh, RFX7 / RFU, GTPBP10 / Fold change vs veh, GTPBP10 / RFU, CNEP1R1 / Fold change vs veh, CNEP1R1 / RFU, BIVM-ERCC5 /// ERCC5 / Fold change vs veh, BIVM-ERCC5 /// ERCC5 / RFU, ILF3 / Fold change vs veh, ILF3 / RFU 11762660_at / Fold change /veh 11762660_at / RFU VCAN (11757783_s_at) / Fold change /veh VCAN (11757783_s_at) / RFU DDX43 (11728927_at) / Fold change /veh DDX43 (11728927_at) / RFU KRT8 (11758188_x_at) / Fold change /veh KRT8 (11758188_x_at) / RFU NKD1 (11759106_at) / Fold change /veh NKD1 (11759106_at) / RFU SRD5A1 (11742802_a_at) / Fold change /veh SRD5A1 (11742802_a_at) / RFU TPSAB1 /// TPSB2 (11721975_s_at) / Fold change /veh TPSAB1 /// TPSB2 (11721975_s_at) / RFU GSTM3 (11746129_a_at) / Fold change /veh GSTM3 (11746129_a_at) / RFU IL23R (11737362_x_at) / Fold change /veh IL23R (11737362_x_at) / RFU TMEM51 (11727254_a_at) / Fold change /veh TMEM51 (11727254_a_at) / RFU PIWIL2 (11732686_x_at) / Fold change /veh PIWIL2 (11732686_x_at) / RFU ORM1 (11744905_x_at) / Fold change /veh ORM1 (11744905_x_at) / RFU CCDC152 (11743942_at) / Fold change /veh CCDC152 (11743942_at) / RFU ECM1 (11717891_a_at) / Fold change /veh ECM1 (11717891_a_at) / RFU IL23R (11748794_a_at) / Fold change /veh IL23R (11748794_a_at) / RFU TNFAIP8L3 (11732012_x_at) / Fold change /veh TNFAIP8L3 (11732012_x_at) / RFU MBOAT4 (11741988_at) / Fold change /veh MBOAT4 (11741988_at) / RFU 11764193_at / Fold change /veh 11764193_at / RFU TMEM53 (11763286_at) / Fold change /veh TMEM53 (11763286_at) / RFU MAGEB2 (11727129_at) / Fold change /veh MAGEB2 (11727129_at) / RFU TMEM200A (11744735_a_at) / Fold change /veh TMEM200A (11744735_a_at) / RFU CCDC152 (11751479_a_at) / Fold change /veh CCDC152 (11751479_a_at) / RFU FAM211A (11726209_a_at) / Fold change /veh FAM211A (11726209_a_at) / RFU RGS16 (11746705_a_at) / Fold change /veh RGS16 (11746705_a_at) / RFU VCAN (11755009_s_at) / Fold change /veh VCAN (11755009_s_at) / RFU RHOB (11743442_s_at) / Fold change /veh RHOB (11743442_s_at) / RFU RGS16 (11720943_a_at) / Fold change /veh RGS16 (11720943_a_at) / RFU RGS16 (11720944_at) / Fold change /veh RGS16 (11720944_at) / RFU, VPS4B / Fold change vs veh, VPS4B / RFU, CREB1 / Fold change vs veh, CREB1 / RFU, DNAJC13 / Fold change vs veh, DNAJC13 / RFU, GNAQ / Fold change vs veh, GNAQ / RFU, CDK5R1 / Fold change vs veh, CDK5R1 / RFU, ZRANB3 / Fold change vs veh, ZRANB3 / RFU, CUL4A / Fold change vs veh, CUL4A / RFU, CCNY / Fold change vs veh, CCNY / RFU, UFL1 / Fold change vs veh, UFL1 / RFU, COG3 / Fold change vs veh, COG3 / RFU, DIAPH2 / Fold change vs veh, DIAPH2 / RFU, SKA2 / Fold change vs veh, SKA2 / RFU, AFF3 / Fold change vs veh, AFF3 / RFU, LMF1 / Fold change vs veh, LMF1 / RFU, IPO11 / Fold change vs veh, IPO11 / RFU, DFFB / Fold change vs veh, DFFB / RFU, FOXP1 / Fold change vs veh, FOXP1 / RFU, CARD8 / Fold change vs veh, CARD8 / RFU, STRN3 / Fold change vs veh, STRN3 / RFU, ADK / Fold change vs veh, ADK / RFU, RASSF2 / Fold change vs veh, RASSF2 / RFU, WIPF1 / Fold change vs veh, WIPF1 / RFU, LARP1B / Fold change vs veh, LARP1B / RFU, RASA1 / Fold change vs veh, RASA1 / RFU, RB1 / Fold change vs veh, RB1 / RFU, PPFIA1 / Fold change vs veh, PPFIA1 / RFU, MAT2A / Fold change vs veh, MAT2A / RFU, CCT5 / Fold change vs veh, CCT5 / RFU, WDR92 / Fold change vs veh, WDR92 / RFU, CUX1 / Fold change vs veh, CUX1 / RFU, TTC7A / Fold change vs veh, TTC7A / RFU, TMEM135 / Fold change vs veh, TMEM135 / RFU, DEPTOR / Fold change vs veh, DEPTOR / RFU, CPM / Fold change vs veh, CPM / RFU, DNAJB6 / Fold change vs veh, DNAJB6 / RFU, CACNA2D3 / Fold change vs veh, CACNA2D3 / RFU, DTX4 / Fold change vs veh, DTX4 / RFU, TFCP2 / Fold change vs veh, TFCP2 / RFU, GMCL1 /// GMCL1P1 / Fold change vs veh, GMCL1 /// GMCL1P1 / RFU, AEBP2 / Fold change vs veh, AEBP2 / RFU, SNHG1 /// SNORD22 /// SNORD25 /// SNORD26 /// SNORD27 /// SNORD28 /// SNORD29 /// SNORD31 / Fold change vs veh, SNHG1 /// SNORD22 /// SNORD25 /// SNORD26 /// SNORD27 /// SNORD28 /// SNORD29 /// SNORD31 / Fold change (Aza/veh), C12orf56 (ProbeSet 11735607_a_at) / Fold change (ACY-1035/veh), C12orf56 (ProbeSet 11735607_a_at) / Fold change (Aza/veh), FGFR1OP (ProbeSet 11751329_s_at) / Fold change (ACY-1035/veh), FGFR1OP (ProbeSet 11751329_s_at) / Fold change (Aza/veh), VPS36 (ProbeSet 11739960_a_at) / Fold change (ACY-1035/veh), VPS36 (ProbeSet 11739960_a_at) / RFU SYPL1 (11715823_x_at) / Fold change /veh SYPL1 (11715823_x_at) / RFU IGFBP7 (11715501_s_at) / Fold change /veh IGFBP7 (11715501_s_at) / RFU REEP3 (11722064_at) / Fold change /veh REEP3 (11722064_at) / RFU IGLL1 (11728026_x_at) / Fold change /veh IGLL1 (11728026_x_at): dose or concentration left out as unconfirmed. The conditions noted are these: MV-4-11 cells, 48 hours.

With `Nc1ccc(-c2cccs2)cc1NC(=O)c1ccc2c(c1)cc(C1CC1)n2CCN1CCOCC1` [ACY-1035], the “Fold change /veh MAGEB2 (11727129_at)” value is given as 0.99.
